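Values below derive from 48-hour exposures of cells grown in 96-well plates, with endpoints linearly interpolated between the two concentrations bracketing the appropriate inhibition level. GI50: concentration for 50% inhibition of growth. At the TGI there is no net growth.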
Columns and labels:
Assay in all cases: growth of human tumour cells (NCI), 48 h
[1] = test system: MDA-MB-231 breast
[2] = test system: SR leukemia
[3] = test system: HT29 colon
[4] = test system: NCI-H460 lung
[5] = test system: UACC-62 melanoma
[6] = test system: TK-10 renal
[7] = test system: OVCAR-4 ovarian
[8] = test system: OVCAR-5 ovarian

Row | SMILES | GI50 [1] | TGI [1] | GI50 [2] | TGI [2] | GI50 [3] | TGI [3] | GI50 [4] | TGI [4] | GI50 [5] | TGI [5] | GI50 [6] [µM] | TGI [6] [µM] | GI50 [7] | TGI [7] | GI50 [8] | TGI [8]
1 | O=C(Cc1ccc(/C=C/C(=O)c2ncc[nH]2)cc1)Nc1cc(F)c(F)c(F)c1 | 6.45 µM | 21.1 µM | 2.16 µM | 13.3 µM | 0.861 µM | 4.17 µM | 3.31 µM | 11.7 µM | 3.71 µM | 8.91 µM | 4.51 | 10.1 | 4.81 µM | > 25 µM | 4.58 µM | 8.84 µM
2 | COc1ccc(-n2cc(-c3cc(OC)c(OC)c(OC)c3)c(C(=O)C(F)(F)F)c2C)cc1 | > 100 µM | > 100 µM | 4.54 µM | > 100 µM | 9.75 µM | > 100 µM | 29.4 µM | > 100 µM | 15.6 µM | > 100 µM | 35.7 | > 100 | 9.28 µM | > 100 µM | > 100 µM | > 100 µM
3 | CCCCCCCCCCCCOC1C(C(COC2OC(C3COC(C)(C)O3)C3OC(C)(C)OC23)NC(=O)Nc2ccc(C(=O)O)cc2)OC2OC(C)(C)OC21 (centres undefined) | 1.99 µM | 4.98 µM | – | – | 2.01 µM | 6.88 µM | 2.45 µM | 5.89 µM | 1.8 µM | 3.56 µM | 4.13 | 14.4 | 3.56 µM | 15.3 µM | 2.67 µM | 6.85 µM
4 | COc1ccc(C(C)=O)cc1N1C(=O)C2C(C1=O)C1(c3ccccc3)C(=O)C2(c2ccccc2)C(c2ccc(C)cc2)=C1c1ccc(C)cc1 (centres undefined) | 33.1 µM | > 100 µM | > 100 µM | > 100 µM | > 100 µM | > 100 µM | > 100 µM | > 100 µM | > 100 µM | > 100 µM | > 100 | > 100 | > 100 µM | > 100 µM | > 100 µM | > 100 µM
5 | S=C1NC2(CCCCCC2)NN1c1ccccc1 | – | > 100 µM | – | > 100 µM | – | > 100 µM | – | > 100 µM | – | > 100 µM | – | > 100 | – | > 100 µM | – | > 100 µM
6 | O=C(Nc1nc2ccc(C(F)(F)F)cc2s1)c1cc(Cl)ccc1O | 0.704 µM | 3.75 µM | 1.24 µM | 20.1 µM | 2.1 µM | 74.7 µM | 0.414 µM | > 100 µM | 0.337 µM | 3.52 µM | 0.76 | 34 | 1.87 µM | > 100 µM | 3.67 µM | > 100 µM
7 | CCCCCCCCCCCCCC1=NC(C)(C)CN1C(C)C | 1.52 µM | 2.89 µM | – | – | 0.422 µM | 1.47 µM | 1.89 µM | 3.3 µM | 1.74 µM | 3.2 µM | 1.58 | 3 | 1.76 µM | 3.48 µM | 1.68 µM | 3.05 µM
8 | COc1cc2nc(-c3ccc(Cl)cc3)cc(OCCCN3CCCCC3)c2cc1OC | 0.666 µM | 4 µM | 0.374 µM | 2.85 µM | – | – | 0.842 µM | > 100 µM | 1.94 µM | 4.42 µM | 3.73 | > 100 | 3.85 µM | > 100 µM | 1.16 µM | > 100 µM
9 | CCN(CC)CCOc1ccc(-c2nc3cc(Cl)ccc3s2)cc1 | 1.47 µM | 2.92 µM | – | – | 0.6 µM | 1.84 µM | 1.59 µM | 2.93 µM | 1.78 µM | 3.33 µM | 1.31 | 2.61 | 1.65 µM | 7.21 µM | 1.6 µM | 3.09 µM
10 | C=CCCCCC/C=C\[C@H](O)C#CC#C/C=C/CO | 14.5 µM | 33.8 µM | – | – | > 100 µM | > 100 µM | > 100 µM | > 100 µM | 26.2 µM | > 100 µM | 28.8 | > 100 | 90.8 µM | > 100 µM | 43.3 µM | > 100 µM
11 | C=C1C(=O)OC2CCN3CC=C(COC(=O)C(C)(O)C4(CO4)C1C)C23 (centres undefined) | – | > 100 µM | – | > 100 µM | – | > 100 µM | – | > 100 µM | – | > 100 µM | – | > 100 | – | > 100 µM | – | –
12 | CN1CCN(CCOc2ccc(-c3cnc4c(-c5ccccc5F)cnn4c3)cc2)CC1 | 1.54 µM | 3.08 µM | 2.59 µM | > 100 µM | – | – | 1.63 µM | 3.05 µM | 1.69 µM | 3.17 µM | 2.09 | 3.9 | 1.55 µM | 4.49 µM | 1.72 µM | 3.23 µM
13 | CCOC(=O)CCCn1c(SC)nc2[nH]cc(-c3ccccc3)c2c1=O | 25.8 µM | 66.7 µM | – | – | 19.5 µM | 59.7 µM | 33.6 µM | > 100 µM | 11.2 µM | 25.1 µM | 46.1 | > 100 | 31.4 µM | 80.8 µM | 37.5 µM | 97.1 µM
14 | C=C(CNCc1ccccc1)c1ccc(C(=O)Nc2ccccc2N)cc1 | 13.2 µM | 54.5 µM | 3.54 µM | > 100 µM | – | – | > 100 µM | > 100 µM | 3.76 µM | 25.3 µM | 4.68 | 21.7 | 11.7 µM | 68.1 µM | 14.4 µM | 40.1 µM
15 | O=C(OC(CNc1cc(=O)n(Cc2ccccc2)c(=O)n1Cc1ccccc1)CN1CCCC1)c1ccccc1 (centres undefined) | 75.3 µM | > 100 µM | – | – | 35 µM | > 100 µM | > 100 µM | > 100 µM | 89.4 µM | > 100 µM | > 100 | > 100 | > 100 µM | > 100 µM | > 100 µM | > 100 µM
16 | COc1cc(N(CCC#N)CCC#N)ccc1/C(N=Nc1ccc([N+](=O)[O-])cc1)=N/NC(=O)c1cc(Br)ccc1O | 35.7 µg/mL | 85.2 µg/mL | 44.8 µg/mL | > 150 µg/mL | 43.5 µg/mL | 105 µg/mL | 33.8 µg/mL | 107 µg/mL | 40.9 µg/mL | > 150 µg/mL | – | – | 21.5 µg/mL | 62.4 µg/mL | 50 µg/mL | > 150 µg/mL

Source: PubChem BioAssay (NCI)
